# Measurements reported in ChEMBL document CHEMBL5244246, “Recent advances in chemistry and bioactivity of marine cyanobacteria Moorea species” (Eur J Med Chem, 2020).
# Columns and labels:
# L1210 = test: Cytotoxicity against mouse L1210 cells assessed as inhibition of cell growth; assay type: functional, cell-based
# Tubulin (Homo sapiens) = Tubulin (Homo sapiens) (UniProt P68371+Q9H4B7+P0DPH7+P68366+Q13509+Q71U36+P04350+Q3ZCM7+P07437+P68363+Q9BQE3+Q6PEY2+Q13885+Q9BVA1+Q9BUF5); test: Inhibition of colchicine binding to tubulin (unknown origin) assessed inhibition rate at 5 uM relative to control; assay type: protein-complex assay
# Tubulin = test: Inhibition of tubulin polymerization (unknown origin) by tubulin polymerization assay; assay type: protein-complex assay, Homo sapiens
# CA46 = test: Cytotoxicity against human CA46 cells assessed as inhibition of cell growth; assay type: functional, cell-based
# [1] = Toxicity in brine shrimp assessed as lethal dose; settings: artemia salina
# [2] = Antiproliferative activity against CHO-AUXB1 cells; assay type: toxicity, cell-based; settings: Chinese hamster (Cricetulus griseus)
# A549 = test: Cytotoxicity against human A549 cells assessed as cell growth inhibition; assay type: functional, cell-based
# P388 = test: Cytotoxicity against mouse P388 cells assessed as inhibition of cell growth; assay type: functional, cell-based
# PC-3 = test: Cytotoxicity against human PC-3 cells assessed as cell growth inhibition; assay type: functional, cell-based
# HCT-8 = test: Cytotoxicity against human HCT-8 cells assessed as cell growth inhibition; assay type: functional, cell-based
# SK-OV-3 = test: Cytotoxicity against human SK-OV-3 cells assessed as cell growth inhibition; assay type: functional, cell-based
# Plasmodium falciparum = test: Antimalarial activity against Plasmodium falciparum assessed as growth inhibition; assay type: functional, organism-based
# Pseudomonas aeruginosa = test: Antibacterial activity against Pseudomonas aeruginosa PA01 assessed as inhibition of swarming at 100 ppm relative to control; assay type: functional
# N2a = test: Cytotoxicity against mouse Neuro2a cells assessed as inhibition of cell growth; assay type: functional, cell-based; settings: Mus musculus, N2a
# NCI-H460 = test: Cytotoxicity against human NCI-H460 cells; assay type: functional, cell-based
# Homo sapiens [3] = organism: Homo sapiens; test: Activation of Voltage-gated sodium channel (unknown origin) at 3 ug/ml incubated for 18 hrs by cell-based bioassay relative to control; settings: dose 3.0 µg/ml
# Homo sapiens [4] = organism: Homo sapiens; test: Inhibition of Voltage-gated sodium channel (unknown origin) at 3 ug/ml incubated for 18 hrs by cell-based bioassay relative to control; settings: dose 3.0 µg/ml
# MCF7 = test: Cytotoxicity against human MCF7 cells assessed as inhibition of cell growth; assay type: functional, cell-based
# HeLa [5] = test: Cytotoxicity against human HeLa cells assessed as inhibition of cell growth incubated for 48 hrs by WST-8 colorimetric assay; assay type: functional, cell-based
# LoVo = test: Cytotoxicity against human LoVo cells; assay type: functional, cell-based
# KB = test: Cytotoxicity against human KB cells; assay type: functional, cell-based
# HCT-116 = test: Cytotoxicity against human HCT-116 cells assessed as inhibition of cell growth; assay type: functional, cell-based
# U-251 = test: Cytotoxicity against human U-251MG cells; assay type: functional, cell-based
# [6] = Toxicity in mouse assessed as lethal dose; settings: in vivo
# [7] = Toxicity in goldfish assessed as survival rate at 5 ppm measured after 90 mins relative to control; settings: carassius auratus
# [8] = Toxicity in brine shrimp; settings: artemia salina; read-out: ED50 (the source's name)
# PANC-1 = test: Cytotoxicity against human PANC-1 cells; assay type: functional, cell-based
# [9] = Toxicity in goldfish assessed as lethal dose; settings: carassius auratus
# Neuro2a = test: Inhibition of sodium channel in mouse Neuro2a cells; assay type: cell-based
# Echinoidea = test: Antiproliferative activity against sea urchin fertilized embryo assessed as inhibition of cell division; assay type: functional, organism-based
# HeLa [10] = test: Cytotoxicity against human HeLa cells assessed as inhibition of cell growth incubated for 72 hrs by MTT assay; assay type: functional, cell-based
# Nitzschia amabilis = test: Growth inhibition of marine diatom assessed as inhibition; assay type: functional, organism-based
# [11] = Toxicity in brine shrimp assessed as lethality at 10 ppm relative to control; settings: artemia salina, read-out: Activity
# [12] = Toxicity in goldfish assessed as lethality at 5 ppm relative to control; settings: carassius auratus, read-out: Activity
# [13] = read-out: LD50 (the source's name)
smiles,measurement,setting,value
C=CCC(CC/C(C)=C/C=C/CC/C=C\C1CSC([C@@H]2C[C@@H]2C)=N1)OC (stereo partly specified),IC50,L1210,9 nM
same,inhibition,Tubulin (Homo sapiens),94%
same,IC50,Tubulin,690 nM
same,IC50,CA46,200 nM
same,LC50,[1]; read-out: LC50,0.003 µg/mL
same,IC50,[2],0.0068 µg/mL
CC[C@@H](C)[C@@H]1NC(=O)CN(C)C(=O)[C@@H](Cc2ccccc2)N(C)C(=O)[C@H](C)NC(=O)[C@@H]([C@@H](C)CC)OC(=O)/C(C)=C/C[C@H](O)[C@@H](C)C[C@H]([C@@H](C)CC)OC(=O)[C@H](C)N(C)C1=O,IC50,A549,2.1 nM
same,IC50,P388,2.1 nM
same,IC50,PC-3,2.1 nM
same,IC50,HCT-8,2.1 nM
same,IC50,SK-OV-3,2.1 nM
same,IC50,Plasmodium falciparum,290 nM
same,inhibition at 100 µg/mL,Pseudomonas aeruginosa,49%
CCCCCCCC[C@@H](C/C=C/CCC(=O)NC/C(=C/Cl)C1=CCC[C@@H](OC(C)=O)C1=O)OC,IC50,N2a,4000 nM
same,IC50,NCI-H460,4000 nM
same,Activity,Homo sapiens [3],19%
same,inhibition,Homo sapiens [4],28%
C=CCC(CC/C=C/C=C/CC/C=C\C1CSC([C@@H]2C[C@@H]2C)=N1)OC (stereo partly specified),IC50,MCF7,340 nM
same,inhibition,Tubulin (Homo sapiens),53%
same,LC50,[1]; [13],15600 nM
CC[C@@H](C)[C@H]1C(=O)N2CCC[C@H]2C(=O)O[C@H](C(C)(C)C)C[C@@H](C)C[C@H](O)[C@H](C)C2=N[C@@H](/C=C(\C)C(=O)N[C@@H](Cc3ccc(OC)cc3)C(=O)N(C)[C@@H](C)C(=O)N1C)CS2,IC50,N2a,1000 nM
same,IC50,HeLa [5],190 nM
same,IC50,LoVo,0.36 nM
same,IC50,KB,0.36 nM
CCCCC(C)C1C[C@@H](O)CCC[C@H](O)C[C@@H](O)C[C@@H](O)CCCC(O)CCCC(O)CCCC(O)CCCC(O)CCCC(O)CC(C)CC(=O)O1 (stereo partly specified),IC50,HCT-116,9900 nM
CCCC[C@@H](C)C[C@@H](C)C(=O)N(C)[C@@H](Cc1ccc(OC)cc1)C(=O)N[C@H](C(=O)N(C)[C@H](C(=O)N1CCC[C@H]1C(=O)N1C(=O)C=C[C@@H]1C)C(C)C)[C@@H](C)OC(C)=O,IC50,U-251,36.8 nM
CC[C@H](C)[C@@H]1NC(=O)CNC(=O)c2csc(n2)[C@H](C(C)(C)O)OC(=O)C(C)(C)[C@H](CCCC(C)(Cl)Cl)OC(=O)c2csc1n2 [LYNGBYABELLIN A],IC50,HCT-116,52.1 nM
same,LD,[6],2.4 mg/kg
CC[C@H](C)[C@H]1C(=O)N2CCC[C@H]2C(=O)O[C@H](C(C)(C)C)C[C@@H](C)C/C=C/C2=N[C@@H](CCC(=O)N[C@@H](Cc3ccc(OC)cc3)C(=O)N(C)[C@@H](C)C(=O)N1C)CS2 [APRATOXIN E],IC50,HCT-116,100 nM
C#CCCC/C(=C/Cl)CCC(C)/C=C/CCC(=O)NCC/C(=C\C(=O)N1C(=O)C=C[C@@H]1C)OC (stereo partly specified),IC50,N2a,15000 nM
same,IC50,NCI-H460,15000 nM
same,"survival at 1.5 h, 5 ppm",[7],0%
O=CNC(CCCC#CC=C(Cl)Cl)CCCCCCC(Cl)Cl (stereo unspecified),LC50,[1]; [13],1.7 µg/mL
same,LC50,[8],1 µg/mL
CCCC[C@@H](C)C[C@@H](C)C(=O)N(C)[C@@H](Cc1ccc(OC)cc1)C(=O)N[C@H](C(=O)N(C)[C@H](C(=O)N1C[C@@H](O)C[C@H]1C(=O)N1C(=O)C=C[C@@H]1C)C(C)C)[C@@H](C)OC(C)=O,IC50,PANC-1,0.32 nM
O=CNC(CCCC#C/C=C\Cl)CCC/C=C\C=C(Cl)Cl (stereo unspecified),LC50,[1]; [13],1.7 µg/mL
same,LC50,[8],1 µg/mL
C=C[C@@H]1CSC(C[C@@H](C)[C@@H](C)C[C@H](C)CCN(C)C(=O)[C@H](C)CC)=N1,LC50,[1]; read-out: LC50,170 nM
same,LC50,[9],700 nM
same,INH,Neuro2a,1 nM
same,IC50,Echinoidea,25 nM
CC/C(=C\C(=O)N(C)/C=C\CCC[C@H]1CC[C@H](C)C[C@@H](C)C(=O)N(C)[C@@H](CC(C)C)C(=O)O1)OC,IC50,HeLa [10],2500 nM
CO[C@@H](CC[C@H](C)[C@@H](O)[C@@H](C)/C=C/C1=C(C(=O)O[C@@H]2CC(=O)O[C@@H]2C)C(=O)[C@H](C)CC1(C)C)c1cc(O)ccc1Br,IC50,L1210,4.6 µg/mL
same,IC50,Nitzschia amabilis,1.2 µg/mL
C=C1CC(=O)N[C@@H](C)C(=O)N(C)[C@@H](C(C)C)C(=O)NCC(=O)O[C@@H](/C(C)=C/C(C)=C/C(C)(C)C)[C@@H]1C [ANTILLATOXIN],LC50,[9],100 nM
C=CCCC/C(=C/Cl)CCC(C)/C=C/CCC(=O)NCC/C(=C\C(=O)N1C(=O)C=C[C@@H]1C)OC (stereo partly specified),IC50,N2a,15000 nM
same,IC50,NCI-H460,15000 nM
same,mortality at 10 ppm,[11],25%
same,mortality at 5 ppm,[12],100%
O=CNC(CCCC#CC=C(Cl)Cl)CCC/C=C/CC(Cl)Cl (stereo unspecified),LC50,[1]; [13],1.7 µg/mL
same,LC50,[8],1 µg/mL
